We go through two compounds from patent US20080009025A1, “PROTEIN KINASE REGULATION” (priority 1999, published 2008).

Experiment [1] deals with T1, PDK1 (Homo sapiens, UniProt O15530).
T1 sequence (O15530 1-556): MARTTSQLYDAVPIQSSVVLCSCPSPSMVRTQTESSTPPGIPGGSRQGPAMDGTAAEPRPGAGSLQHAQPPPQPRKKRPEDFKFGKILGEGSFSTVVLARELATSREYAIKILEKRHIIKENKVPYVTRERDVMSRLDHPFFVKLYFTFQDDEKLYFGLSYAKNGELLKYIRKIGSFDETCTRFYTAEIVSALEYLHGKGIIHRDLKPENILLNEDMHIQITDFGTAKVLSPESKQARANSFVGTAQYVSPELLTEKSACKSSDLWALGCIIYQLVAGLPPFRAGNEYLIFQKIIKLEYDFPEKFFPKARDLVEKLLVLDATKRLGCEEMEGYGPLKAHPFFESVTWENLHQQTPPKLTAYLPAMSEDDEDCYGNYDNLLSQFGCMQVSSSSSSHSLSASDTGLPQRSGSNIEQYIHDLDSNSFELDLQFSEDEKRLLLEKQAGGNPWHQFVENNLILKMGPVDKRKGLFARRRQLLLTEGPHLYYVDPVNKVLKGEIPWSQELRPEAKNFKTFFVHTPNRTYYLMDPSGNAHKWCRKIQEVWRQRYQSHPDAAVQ
Details: Full length PDK1 (residues 1-556); made in house; host or cells: 293 cells. The settings on record: ref [17]; cited from earlier work.

For experiment [2], the target named is T1, PDK1. The experiment in a line: PDK1 activity towards synthetic peptide substrates T308tide or PDKtide. To be noted: substrate T308tide. Set-up: Full length PDK1 (residues 1-556); made in house; host or cells: 293 cells. The experiment is classed as biochemical. The protocol: FIG. 12. PDK1 is activated and stabilised through its interaction with PIFtide. (A) GST-PDK1 activity was measured in the presence of increasing concentrations of wild type (wt) PIFtide (closed circles) or a mutant D978A PIFtide (open circles) using the synthetic peptide substrate termed T308tide, as described in Material and Methods. The data was fitted to a hyperbola using the Kaleidagraph™ software. The connection needed to obtain 50% activation of PDK1 was […] for wt-PIFtide and 1.1 μM for D978A-PIFtide. The assay shown was performed in triplicate and there was less than 5% difference between each assay. Similar results were obtained in 2 further experiments (B)—The wild type GST-PDK1 (circles) or the L155D mutant of GST-PDK1 (squares) was incubated in the presence (closed symbols) or absence (open symbols) of […] PIFtife and then for 2 min at the indicated temperatures, rapidly brought to 0° C. (see Materials and Methods), and 2 min later assayed at 30° C. for 10 min using T308tide as substrate. The activity of PDK1 obtained by incubation at 30° C. was taken as 100%. The assay shown was performed in duplicate with similar results obtained in two separate experiments.
FIG. 14. […] (A) His-PDK1 was assayed for activity using as substrate the indicated concentration of either PDKtide (open triangles) or T308tide (open circles). […]
PDK1's ability to phosphorylate Thr308 of PKBα was measured using a mutant of GST-PKBα in which Ser473 was mutated to Asp (GST-473D PKBα) in the presence of phospholipid vesicles containing sn-1-stearoyl-2-arachidonoyl-D-PtdIns (3, 4, 5)P3 [13]. […] 35 μl of the resultant mixture was spotted into P81 phosphocellulose paper (2×2 cm) and the papers washed and analysed as described previously for assays of MAP kinase. […] Control assays were carried out in parallel in which either PDK1, or peptide substrate were omitted; these values were always less than 5% of the activity measured in the presence of these reagents. […]

SMILES strings stand for the structures. Where a SMILES comes first, the peptide text is derived from it.

Consider `CC[C@H](C)[C@H](NC(=O)[C@H](Cc1ccc(O)cc1)NC(=O)[C@H](CC(=O)O)NC(=O)[C@H](Cc1ccccc1)NC(=O)[C@H](CC(=O)O)NC(=O)[C@H](CCCNC(=N)N)NC(=O)[C@H](Cc1ccccc1)NC(=O)[C@H](CCSC)NC(=O)[C@H](CCC(=O)O)NC(=O)[C@H](CCC(N)=O)NC(=O)[C@H](CCC(=O)O)NC(=O)[C@H](CCC(=O)O)NC(=O)[C@H](CCC(=O)O)NC(=O)[C@H](CO)NC(=O)[C@H](CC(C)C)NC(=O)[C@@H](NC(=O)[C@H](CCCNC(=N)N)NC(=O)[C@@H]1CCCN1C(=O)[C@H](CCC(=O)O)NC(=O)[C@@H](N)CCCNC(=N)N)[C@@H](C)CC)C(=O)N[C@@H](C)C(=O)N[C@@H](CC(=O)O)C(=O)N[C@@H](Cc1c[nH]c2ccccc12)C(=O)N[C@@H](CS)C(=O)O` [PIFtide] (H-REPRILSEEEQEMFRDFDYIADWC-OH; N-terminus and C-terminus assumed), for which the “increase in the rate at which PDK1 phosphorylated T308tide” value at PDK1 [1] is reported as 4 fold. Moreover, the EC50 at PDK1 [2] (GST-PDK1, read-out: concentration required for half-maximal (50%) activation of PDK1) is 140 nM. In addition, the “increase in PDK1 activity towards T308tide” value on PDK1 [2] is given as “up to 4 fold”.

On to `CC[C@H](C)[C@H](NC(=O)[C@H](CCCNC(=N)N)NC(=O)[C@@H]1CCCN1C(=O)[C@H](CCC(=O)O)NC(=O)[C@@H](N)CCCNC(=N)N)C(=O)N[C@@H](CC(C)C)C(=O)N[C@@H](CO)C(=O)N[C@@H](CCC(=O)O)C(=O)N[C@@H](CCC(=O)O)C(=O)N[C@@H](CCC(=O)O)C(=O)N[C@@H](CCC(N)=O)C(=O)N[C@@H](CCC(=O)O)C(=O)N[C@@H](CCSC)C(=O)N[C@@H](Cc1ccccc1)C(=O)N[C@@H](CCCNC(=N)N)C(=O)N[C@@H](CC(=O)O)C(=O)N[C@@H](Cc1ccccc1)C(=O)N[C@@H](C)C(=O)N[C@@H](Cc1ccc(O)cc1)C(=O)N[C@@H](CC(C)C)C(=O)N[C@@H](C)C(=O)N[C@@H](CC(=O)O)C(=O)N[C@@H](Cc1c[nH]c2ccccc12)C(=O)N[C@@H](CS)C(=O)O` [D978A-PIFtide] (H-REPRILSEEEQEMFRDFAYLADWC-OH; N-terminus and C-terminus assumed), for which the “less effective at inducing PDK1 activation than wild type PIFtide” value on PDK1 [2] came to 8 fold.
